Reference: PubChem BioAssay AID2051 (NMMLSC, 2009)
pEC50, pKi: −log10 of the molar value. Activity calls are given as the source filed them.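 How the source made its calls: active means EC50 of 30 microM or lower and a span of response of at least a set limit; inactive means the rest.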

Biological target: Ras-related C3 botulinum toxin substrate 1 (Homo sapiens) (UniProt P63000)
Test: activated mutant Rac1 GTP binding inhibitors, SAR follow-up, biochemical, oxadiazole analogs, multiplex bead flow cytometry (AID 2051)
Settings: Bead-based flow cytometry, Bodipy-FL-GTP binding to GST-Rac1; for pKi: measured here: Ki calculated from EC50

With `COc1ccc(-c2cc(CCC(=O)N3CCN(c4cc(C)ccc4C)CC3)on2)cc1` the EC50 was “inactive” and the pKi was 6.72.

`Cc1ccc(C)c(N2CCN(C(=O)CCc3nc(-c4ccccc4Br)no3)CC2)c1` was tested, and the pEC50 was 5.67 and the pKi was 6.70.

For `COc1ccc(-c2noc(CCC(=O)N3CCN(c4cccc(C(F)(F)F)c4)CC3)n2)cc1`, the EC50 was “inactive” and the pKi was 6.08.

Work on `COc1ccc(-c2noc(CCC(=O)N3CCN(c4ccccc4C(F)(F)F)CC3)n2)cc1` yielded a pEC50 of 5.70 and a pKi of 6.74.

Molecule `Cc1cccc(-c2noc(CCC(=O)N3CCN(c4cc(C)ccc4C)CC3)n2)c1` has a pEC50 of 5.72 and a pKi of 6.77.

In the case of `COc1ccc(-c2noc(CCC(=O)N3CCN(c4cccc(OC)c4)CC3)n2)cc1`, the EC50 was “inactive” and the pKi was 6.05.

In the case of `COc1ccc(-c2cccc(CCC(=O)N3CCN(c4cc(C)ccc4C)CC3)c2)cc1`, the EC50 was “inactive” and the pKi was 6.04.

Molecule `Cc1ccc(C)c(N2CCN(C(=O)CCc3nc(-c4cccc(F)c4)no3)CC2)c1` has a pEC50 of 5.59 and a pKi of 6.64.

With `COc1ccc(-c2noc(CCC(=O)N3CCN(c4cccc(C)c4)CC3)n2)cc1` the EC50 was “inactive”.

With `COc1ccc(-c2noc(CCC(=O)N3CCN(c4cc(C)ccc4C)CC3)n2)cc1` the pEC50 was 5.23 and the pKi was 6.27.

With `COc1ccc(-c2ccc(CCC(=O)N3CCN(c4cc(C)ccc4C)CC3)[nH]2)cc1` the EC50 was “inactive” and the pKi was 6.32.

For `COc1ccc(-c2noc(CCC(=O)N3CCN(c4ccc(C)cc4)CC3)n2)cc1`, the EC50 was “inactive” and the pKi was 6.85.

With `Cc1ccc(C)c(N2CCN(C(=O)CCc3nc(-c4ccccc4C(F)(F)F)no3)CC2)c1` the pEC50 was 5.57 and the pKi was 6.60.

`COc1ccc(-c2noc(CCC(=O)N3CCN(c4ccccc4F)CC3)n2)cc1` was tested, and the pEC50 was 5.60 and the pKi was 6.64.

`Cc1ccc(C)c(N2CCN(C(=O)CCc3nc(-c4ccc(C(F)(F)F)cc4)no3)CC2)c1` gave a pEC50 of 5.71 and a pKi of 6.74.

`Cc1ccc(C)c(N2CCN(C(=O)CCc3nc(-c4cccc(Cl)c4)no3)CC2)c1` gave a pEC50 of 5.29 and a pKi of 6.33.

`Cc1ccc(C)c(N2CCN(C(=O)CCc3nc(-c4ccccc4C)no3)CC2)c1` gave a pEC50 of 5.70 and a pKi of 6.74.

`COc1ccc(-c2noc(CCC(=O)N3CCN(c4ccc(Cl)cc4)CC3)n2)cc1` was tested, and the EC50 was “inactive”.

`COc1ccc(-c2noc(CCC(=O)N3CCN(c4cccc(C)c4C)CC3)n2)cc1` showed a pEC50 of 5.81 and a pKi of 6.85.

For `COc1ccc(-c2noc(CCC(=O)N3CCN(c4cccc(F)c4)CC3)n2)cc1`, the EC50 was “inactive”.

With `COc1ccc(-c2noc(CCC(=O)N3CCN(c4ccccc4C)CC3)n2)cc1` the pEC50 was 5.83 and the pKi was 6.89.

For `COc1ccc(-c2noc(CCC(=O)N3CCN(c4ccc(OC)cc4)CC3)n2)cc1`, the EC50 was “inactive” and the pKi was 7.22.

`Cc1ccc(C)c(N2CCN(C(=O)CCc3nc(-c4ccc(Br)cc4)no3)CC2)c1` was tested, and the pEC50 was 5.52 and the pKi was 6.57.

In the case of `COc1ccc(-c2noc(CCC(=O)N3CCN(c4cccc(Br)c4)CC3)n2)cc1`, the pEC50 was 4.69 and the pKi was 5.73.

Work on `COc1cccc(-c2noc(CCC(=O)N3CCN(c4cc(C)ccc4C)CC3)n2)c1` yielded a pEC50 of 5.24 and a pKi of 6.28.

`COc1ccc(-c2noc(CCC(=O)N3CCN(c4ccc(F)cc4)CC3)n2)cc1` was tested, and the EC50 was “inactive” and the pKi was 7.10.

`COc1ccc(-c2noc(CCC(=O)N3CCN(c4ccc(Br)cc4)CC3)n2)cc1` was tested, and the EC50 was “inactive” and the pKi was 6.52.

`Cc1ccc(C)c(N2CCN(C(=O)CCc3nc(-c4cccc(C(F)(F)F)c4)no3)CC2)c1` showed a pEC50 of 5.47 and a pKi of 6.51.

For `COc1ccc(-c2noc(CCC(=O)N3CCN(c4ccc(C(F)(F)F)cc4)CC3)n2)cc1`, the EC50 was “inactive”.

`COc1ccc(-c2noc(CCC(=O)N3CCN(c4cccc(Cl)c4)CC3)n2)cc1` showed a pEC50 of 5.13 and a pKi of 6.17.

`Cc1ccc(C)c(N2CCN(C(=O)CCc3nc(-c4ccccc4F)no3)CC2)c1` gave a pEC50 of 5.65 and a pKi of 6.70.

`COc1ccc(-c2noc(CCC(=O)N3CCN(c4ccccc4Br)CC3)n2)cc1` showed a pEC50 of 5.65 and a pKi of 6.70.

With `Cc1ccc(C)c(N2CCN(C(=O)CCc3nc(-c4ccccc4Cl)no3)CC2)c1` the pEC50 was 5.86 and the pKi was 6.92.

For `COc1ccc(-c2noc(CCC(=O)N3CCC(c4cc(C)ccc4C)CC3)n2)cc1`, the EC50 was “inactive” and the pKi was 6.64.

In the case of `Cc1ccc(C)c(N2CCN(C(=O)CCc3nc(-c4ccc(Cl)cc4)no3)CC2)c1`, the pEC50 was 5.65 and the pKi was 6.70.

For `COc1ccc(-c2noc(CCCCC(=O)N3CCN(c4cc(C)ccc4C)CC3)n2)cc1`, the EC50 was “inactive” and the pKi was 5.97.

In the case of `COc1ccc(-c2ccc(CCC(=O)N3CCN(c4cc(C)ccc4C)CC3)s2)cc1`, the EC50 was “inactive”.

With `Cc1ccc(C)c(N2CCN(C(=O)CCc3nc(-c4ccccc4)no3)CC2)c1` the pEC50 was 5.56 and the pKi was 6.60.

In the case of `COc1ccc(-c2cc(CCC(=O)N3CCN(c4cc(C)ccc4C)CC3)[nH]n2)cc1`, the EC50 was “inactive”.

`Cc1ccc(C)c(N2CCN(C(=O)CCc3nc(-c4cccc(Br)c4)no3)CC2)c1` gave a pEC50 of 5.67 and a pKi of 6.72.

`COc1ccc(-c2noc(CCCC(=O)N3CCN(c4cc(C)ccc4C)CC3)n2)cc1` gave a pEC50 of 5.09 and a pKi of 6.12.

`COc1ccc(-c2ccc(CCC(=O)N3CCN(c4cc(C)ccc4C)CC3)o2)cc1` was tested, and the EC50 was “inactive”.

In the case of `Cc1ccc(C)c(N2CCN(C(=O)CCc3nc(-c4ccc(N(C)C)cc4)no3)CC2)c1`, the pEC50 was 5.39 and the pKi was 6.43.

In the case of `Cc1ccc(-c2noc(CCC(=O)N3CCN(c4cc(C)ccc4C)CC3)n2)cc1`, the pEC50 was 5.48 and the pKi was 6.52.

In the case of `COc1ccc(-c2noc(CCC(=O)N3CCN(c4ccccc4OC)CC3)n2)cc1`, the pEC50 was 5.42 and the pKi was 6.46.

Molecule `COc1ccc(-c2coc(CCC(=O)N3CCN(c4cc(C)ccc4C)CC3)n2)cc1` has a pEC50 of 5.55 and a pKi of 6.59.

In the case of `COc1ccc(-c2noc(CC(=O)N3CCN(c4cc(C)ccc4C)CC3)n2)cc1`, the EC50 was “inactive” and the pKi was 5.88.

`COc1ccccc1-c1noc(CCC(=O)N2CCN(c3cc(C)ccc3C)CC2)n1` was tested, and the EC50 was “inactive” and the pKi was 6.32.

`Cc1ccc(C)c(N2CCN(C(=O)CCc3nc(-c4ccc(F)cc4)no3)CC2)c1` showed a pEC50 of 5.86 and a pKi of 6.92.

For `COc1ccc(-c2noc(CCC(=O)N3CCN(c4ccccc4)CC3)n2)cc1`, the EC50 was “inactive” and the pKi was 6.80.

`COc1ccc(-c2noc(CCC(=O)N3CCN(c4ccccc4Cl)CC3)n2)cc1` showed a pEC50 of 5.31 and a pKi of 6.35.
